# Results from patent US9820989B2, “Method of treating conditions with kinase inhibitors” (Allergan, Inc., priority 2012, dated 2017).
# Target: PDGFRβ kinase (Homo sapiens (Human), UniProt P09619)
# Test: PDGFRβ Kinase Assay (biochemical, poly-Glu-Tyr ELISA)
# Conditions: purified cytoplasmic domain PDGFR-b protein, 36 μM ATP
# Experimental: Biochemical PDGFRβ kinase assays were performed in 96 well microliter plates that were coated overnight with 75 μg of poly-Glu-Tyr (4:1) in 10 mM Phosphate Buffered Saline (PBS), pH 7.4. The coated plates were washed with 2 mls per well PBS+0.05% Tween-20 (PBS-T), blocked by incubation with PBS containing 1% BSA, then washed with 2 mls per well PBS-T prior to starting the reaction. Reactions were carried out in 100 μL reaction volumes containing 36 μM ATP in kinase buffer (50 mM Hepes buffer pH 7.4, 20 mM MgCl2, 0.1 mM MnCl2 and 0.2 mM Na3VO4). Test compounds were reconstituted in 100% DMSO and added to the reaction to give a final DMSO concentration of 5%. Reactions were initiated by the addition 20 ul per well of kinase buffer containing 200-300 ng purified cytoplasmic domain PDGFR-b protein (Millipore). […] The reaction was terminated by the addition of 100 μl of 2.5N H2SO4 to each well and read using a microplate ELISA reader set at 492 nm. IC50 values for compound inhibition were calculated directly from graphs of optical density (arbitrary units) versus compound concentration following subtraction of blank values.
# IC50 values for test compounds were calculated from % inhibition of PDGF-BB stimulated responses in the absence of inhibitor.
# Sequence of PDGFRβ kinase (P09619 554-1106): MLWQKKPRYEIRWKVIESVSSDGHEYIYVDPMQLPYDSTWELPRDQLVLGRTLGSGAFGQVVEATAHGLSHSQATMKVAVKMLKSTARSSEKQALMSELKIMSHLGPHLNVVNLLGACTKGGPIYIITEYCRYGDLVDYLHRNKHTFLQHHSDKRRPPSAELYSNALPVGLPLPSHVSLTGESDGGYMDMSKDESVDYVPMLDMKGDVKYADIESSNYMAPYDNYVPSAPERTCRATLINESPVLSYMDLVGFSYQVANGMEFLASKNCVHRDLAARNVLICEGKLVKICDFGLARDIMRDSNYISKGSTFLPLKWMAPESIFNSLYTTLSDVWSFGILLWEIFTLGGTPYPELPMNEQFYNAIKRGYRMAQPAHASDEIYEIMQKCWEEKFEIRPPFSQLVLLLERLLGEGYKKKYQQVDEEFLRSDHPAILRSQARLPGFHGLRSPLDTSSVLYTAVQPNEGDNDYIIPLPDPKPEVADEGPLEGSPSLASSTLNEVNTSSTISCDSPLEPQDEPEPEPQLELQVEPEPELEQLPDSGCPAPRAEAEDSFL
structure (smiles),measurement,value
"CC(C)c1ccc(NC(=O)c2cc(N3Cc4cnc(N)nc4C3)ccn2)cc1 [Example 83, 4-(2-amino-5,7-dihydro-6H-pyrrolo[3,4-d]pyrimidin-6-yl)-N-(4-isopropylphenyl)pyridine-2-carboxamide]",IC50,> 10 µM
